Source: PubChem BioAssay (NCI)
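In this assay, cells in 96-well plates receive the compound at five concentrations for 48 hours. Endpoints are linearly interpolated between the surrounding concentrations. Abbreviation: GI50, concentration required for 50% inhibition of growth. TGI denotes the concentration required for complete inhibition of growth.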

Key:
Assay in all cases: growth of human tumour cells (NCI), 48 h
ACHN renal = test system: ACHN renal
UO-31 renal = test system: UO-31 renal
NCI/ADR-RES ovarian = test system: NCI/ADR-RES ovarian
MDA-MB-231 breast = test system: MDA-MB-231 breast
SK-MEL-2 melanoma = test system: SK-MEL-2 melanoma
EKVX NSCLC = test system: EKVX NSCLC
UACC-257 melanoma = test system: UACC-257 melanoma
K-562 leukemia = test system: K-562 leukemia
SK-MEL-5 melanoma = test system: SK-MEL-5 melanoma
HCT-116 colon = test system: HCT-116 colon
CCRF-CEM leukemia = test system: CCRF-CEM leukemia
RPMI-8226 leukemia = test system: RPMI-8226 leukemia
SR leukemia = test system: SR leukemia
MCF7 breast = test system: MCF7 breast
T-47D breast = test system: T-47D breast

Compound | TGI (ACHN renal) [µM] | TGI (UO-31 renal) [µM] | TGI (NCI/ADR-RES ovarian) [µM] | TGI (MDA-MB-231 breast) [µM] | TGI (SK-MEL-2 melanoma) [µM] | TGI (EKVX NSCLC) [µM] | TGI (UACC-257 melanoma) [µM] | TGI (K-562 leukemia) [µM] | TGI (SK-MEL-5 melanoma) [µM] | TGI (HCT-116 colon) [µM] | TGI (CCRF-CEM leukemia) [µM] | TGI (RPMI-8226 leukemia) [µM] | TGI (SR leukemia) [µM] | TGI (MCF7 breast) [µM] | TGI (T-47D breast) [µM] | GI50 (ACHN renal) [µM] | GI50 (UO-31 renal) [µM] | GI50 (CCRF-CEM leukemia) [µM] | GI50 (SK-MEL-2 melanoma) [µM] | GI50 (UACC-257 melanoma) [µM]
O=C(O)CN1CCCC(Cc2c[nH]c3ccccc23)C1 (centres undefined) | > 100 | > 100 | > 100 | > 100 | > 100 | > 100 | > 100 | > 100 | > 100 | – | – | – | – | – | – | – | – | – | – | –
Brc1c2nc3ccccc3nc2n2ccc3ccccc3c12 | > 100 | > 100 | – | – | > 100 | > 100 | > 100 | > 100 | > 100 | > 100 | > 100 | > 100 | > 100 | – | – | – | – | – | – | –
O=C(CNc1nccs1)Nn1cnc2ccc(S(=O)(=O)Nc3nccs3)cc2c1=O | > 100 | > 100 | > 100 | > 100 | > 100 | > 100 | > 100 | > 100 | – | > 100 | > 100 | > 100 | > 100 | > 100 | – | – | – | – | – | –
NC(=O)COc1c(Br)cc(Br)cc1Br | > 100 | > 100 | – | – | > 100 | > 100 | > 100 | > 100 | > 100 | > 100 | > 100 | > 100 | > 100 | – | – | – | – | – | – | –
Nc1ccc2nc(Nc3ccc(Cl)c(Cl)c3)cnc2c1 | 91.9 | 29.4 | – | – | 37.7 | > 100 | 71 | 82.5 | > 100 | 33.4 | 9.57 | 54.4 | 35.5 | – | – | – | – | – | – | –
CCOC(=O)CCC(NC(=O)c1ccc(Nc2nc3cc(C(F)(F)F)ccc3nc2C(=O)OCC)cc1)C(=O)OCC (centres undefined) | 26.7 | 24.6 | 29.7 | 34.1 | 28.8 | 38 | 34.5 | > 100 | 93 | 19.9 | > 100 | > 100 | > 100 | – | 29.7 | – | – | – | – | –
CCCCCCCCCCCCCCCCNCC(O)CN (centres undefined) | – | 25.3 | 4.72 | – | 36.2 | 44.6 | 23.7 | 3.35 | 27 | 3.64 | 3.72 | 4.52 | – | 6.47 | – | – | – | – | – | –
O=C(NC12CC3CC(CC(C3)C1)C2)C(=O)c1c[nH]c2ccc(Br)cc12 | > 100 | > 100 | – | – | > 100 | > 100 | > 100 | 47.2 | > 100 | 45.7 | > 100 | > 100 | 29.6 | – | – | – | – | – | – | –
C[C@]12C(=O)C=CCC1=CC[C@@H]1[C@@H]2[C@H]2CC3(O)C(=O)O[C@@]4(C)[C@H]5C[C@@]6(C)[C@@H]7[C@@]2(O)[C@]1(OC[C@H]6C(=O)O5)O[C@]734 (some centres undefined) | > 100 | > 100 | > 100 | > 100 | > 100 | > 100 | > 100 | > 100 | > 100 | > 100 | > 100 | > 100 | 75.2 | > 100 | – | – | – | – | – | –
Fc1ccc2[nH]cc(-c3nc(-c4c[nH]c5ccncc45)cs3)c2c1 | 2.97 | 2.61 | – | – | 3.75 | – | 3.58 | – | – | – | 4.65 | – | – | – | – | 1.61 | 1.33 | 1.89 | 1.91 | 1.91
CCCc1n[nH]c(=O)n1N1C(=O)C=CC1=O | – | – | – | > 100 | > 100 | > 100 | > 100 | > 100 | > 100 | > 100 | > 100 | – | > 100 | > 100 | > 100 | – | – | – | – | –
Cc1ccc(S(=O)(=O)NC(=O)NCCc2ccc(O)c(O)c2)cc1 | > 100 | > 100 | > 100 | > 100 | > 100 | > 100 | – | > 100 | > 100 | > 100 | – | > 100 | > 100 | > 100 | – | – | – | – | – | –
C/C=C/c1cc2c(c(=O)o1)C(=O)[C@@H](O)[C@H](C)O2 | – | 37.2 | 32.3 | – | 34.2 | 31 | 31.8 | > 100 | 29.4 | 20.1 | 53.9 | 34.5 | – | 14.8 | – | – | – | – | – | –
COc1cccc2c1C(=O)c1c(O)c3c(c(O)c1C2=O)C[C@@](O)(C(=O)CN1CCOCC1)C[C@@H]3OC1CC(N)C(O)C(C)O1 (some centres undefined) | – | 59.6 | > 100 | – | 22.7 | 55.9 | – | 61.7 | 15.7 | > 100 | > 23.1 | 43.2 | – | > 100 | – | – | – | 0.964 | – | 11.3
Cc1c(-c2coc(-c3ccccc3)n2)c(=O)n(-c2ccccc2)n1C | > 100 | > 100 | – | – | > 100 | – | > 100 | – | 61 | > 100 | > 100 | > 100 | > 100 | – | – | – | – | – | – | –
CCCCOc1c(C(=O)O)cc(Br)cc1C(=O)O | > 100 | > 100 | > 100 | > 100 | > 100 | > 100 | > 100 | > 100 | > 100 | > 100 | – | > 100 | – | > 100 | > 100 | – | – | – | – | –
Clc1ccc2nc3n[nH]c(Cl)c3nc2c1 | > 100 | 68.2 | > 100 | > 100 | > 100 | 85.4 | > 100 | > 100 | 97.8 | > 100 | – | > 100 | – | > 100 | > 100 | – | – | – | – | –
O=C(NNS(=O)(=O)c1ccc(Br)cc1)c1ccc(Cl)cc1NC(=O)C12CC3CC(CC(C3)C1)C2 | 29.7 | 24.2 | 32.5 | – | 25.3 | 27.3 | 26.9 | 24.4 | 23.2 | > 100 | 76.5 | 24 | 35.5 | 34.1 | > 100 | – | – | – | – | –
N#CNC(=NCc1ccccc1)NCCc1c[nH]c2ccccc12 | > 100 | 86.2 | – | – | – | > 100 | > 100 | > 100 | 83.3 | > 100 | > 100 | > 100 | > 100 | – | – | – | – | – | – | –
Nc1ncnc2c1sc(=S)n2-c1ccccc1 | > 100 | > 100 | – | – | > 100 | > 100 | > 100 | > 100 | > 100 | > 100 | > 100 | > 100 | > 100 | – | – | – | – | – | – | –
N=c1n(CC(=O)NC23CC4CC(CC(C4)C2)C3)c2ccccc2n1CC(=O)NC12CC3CC(CC(C3)C1)C2 | 3.94 | 26 | – | – | 30.9 | 5.03 | 3.17 | 5.54 | 3.24 | 3.46 | 6.23 | 6.07 | 4.51 | – | – | – | – | – | – | –
CO[C@H]1CC[C@]2(C)C3=CC[C@@]4(C)C(CC[C@@H]4C(C)CC[C@@H](C)C(C)C)C(=CCC2C1)O3 (some centres undefined) | > 25 | > 25 | – | – | > 25 | > 25 | > 25 | > 25 | > 25 | > 25 | > 25 | > 25 | > 25 | – | – | – | – | – | – | –
COc1cc(S(=O)(=O)Nc2ccc(-c3csc(N4C(=O)C(Cl)C4c4cccc(Oc5ccccc5)c4)n3)cc2)ccc1Cl (centres undefined) | 57.1 | 43.9 | > 100 | – | 76.7 | 52 | > 100 | 91.2 | > 100 | > 100 | > 100 | > 100 | > 100 | > 100 | 41.9 | – | – | – | – | –
COC(=O)CCCC1(CCCC(=O)OC)CCCCCCCCC(CCCC(=O)OC)(CCCC(=O)OC)C(=O)C1=O | > 100 | 0.3 | > 100 | – | 70.5 | > 100 | > 100 | 37.8 | > 100 | > 100 | – | > 100 | 85.5 | > 100 | > 100 | – | – | – | – | –
C[N+](C)(C)CCOC(=O)/C=C/c1cnc[nH]1 | – | > 500 | > 500 | – | > 500 | > 500 | > 500 | > 500 | > 500 | > 500 | > 500 | > 500 | – | > 500 | – | – | – | – | – | –
Cn1c(=O)c2c(nc3n2CCC(=O)N3CCCCl)n(C)c1=O | > 100 | > 100 | > 100 | > 100 | > 100 | > 100 | > 100 | > 100 | > 100 | > 100 | > 100 | > 100 | > 100 | – | > 100 | – | – | – | – | –
CC(=O)Oc1c2c(c(OC(C)=O)c3c1n(C(C)=O)c1ccccc1n3C(C)=O)n(C(C)=O)c1ccccc1n2C(C)=O | 25.4 | 25.2 | – | – | 24 | – | 13 | > 100 | 39 | – | 15.6 | 10.8 | 7.69 | – | – | – | – | – | – | –
